Reference: patent publication US5008252A, “Process for inhibiting herpes simplex virus-specified thymidine kinase” (The University of North Carolina at Chapel Hill, priority 1987, dated 1991)

Tests used:
HSV-1 (KOS) dThd kinase = HSV-1 (KOS) dThd kinase (Human alphaherpesvirus 1 strain KOS, UniProt P17402); assay: dThd kinase assay in vitro; assay type: biochemical, HSV-1 (strain KOS)
Description: (§1) Enzyme purification, enzyme assays, IC50 and Ki determinations. The cellular cytosolic dThd kinase used to determine the Ki values was isolated from KB6B cells. The HSV-1 and HSV-2dThd kinases were extracted from dThd kinase-deficient HeLa BU cells infected with HSV-1 (strain KOS) and HSV-2(strain 333), respectively. All of the dThd kinases were purified using affinity column chromatography procedures described by Lee, L. S. and Cheng, Y.-C. (J. Biol. Chem. 251:2600-2604 (1976)). The dThd kinase assay used was the same as that described by Cheng, Y.-C. & Ostrander, M. (J. Biol. Chem. 251:2605-2610 (1976)). Incubations were conducted at 37° C. for 60 min and the Ki and 50% […] concentration (IC50) values were determined as described by Cheng, Y.-C. and Prusoff, W. H. (Biochem. Pharmacol. 22:3099-3108 (1976)).

HSV-1 SC16 dThd kinase = HSV-1 SC16 dThd kinase (Human herpesvirus 1, UniProt P06479); assay: dThd kinase assay in vitro, enzyme extracts; assay type: biochemical, HSV-1 (strain SC16); conditions: enzyme extracts of infected HeLa BU cells, 100 μM dThd
HSV-1 SC16 dThd kinase, sequence (P06479 whole entry, looked up): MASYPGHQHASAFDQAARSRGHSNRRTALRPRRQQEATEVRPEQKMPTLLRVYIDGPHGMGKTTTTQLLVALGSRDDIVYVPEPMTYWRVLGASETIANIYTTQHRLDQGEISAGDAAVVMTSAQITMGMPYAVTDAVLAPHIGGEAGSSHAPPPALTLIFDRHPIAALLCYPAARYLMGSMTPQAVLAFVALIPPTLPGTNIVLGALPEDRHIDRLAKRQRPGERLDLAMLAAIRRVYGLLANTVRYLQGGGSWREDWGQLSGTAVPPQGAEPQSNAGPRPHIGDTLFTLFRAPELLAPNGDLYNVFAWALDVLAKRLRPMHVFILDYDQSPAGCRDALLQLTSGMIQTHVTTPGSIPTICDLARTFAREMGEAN
Procedure: Virus stocks. The viruses used were HSV-1 (strains KOS, SC16, B3 and Tr7) and HSV-2(strain 333). dThd kinase mutants of HSV (SC16), B3 and Tr7, were isolated in the presence of (E)-5-(2-bromovinyl)-2'-deoxyuridine (BVDU) at 10 μg/ml and ACV at 1 μg/ml, respectively (Darby, G., Field, H.J. & Salisbury, S. A. (1982) Nature (London) 289:81-83; Field, H.J & Neden J. (1982) Antiviral Res. 2:243254).
as §1

[1] = target: HSV-1 (strain KOS) dThd kinase-associated dTMP kinase (Human alphaherpesvirus 1 strain KOS, UniProt P17402); assay: dTMP (thymidylate) kinase assay, crude extracts; assay type: biochemical; conditions: HSV-1 KOS
HSV-1 (strain KOS) dThd kinase-associated dTMP kinase, sequence (P17402 whole entry, looked up): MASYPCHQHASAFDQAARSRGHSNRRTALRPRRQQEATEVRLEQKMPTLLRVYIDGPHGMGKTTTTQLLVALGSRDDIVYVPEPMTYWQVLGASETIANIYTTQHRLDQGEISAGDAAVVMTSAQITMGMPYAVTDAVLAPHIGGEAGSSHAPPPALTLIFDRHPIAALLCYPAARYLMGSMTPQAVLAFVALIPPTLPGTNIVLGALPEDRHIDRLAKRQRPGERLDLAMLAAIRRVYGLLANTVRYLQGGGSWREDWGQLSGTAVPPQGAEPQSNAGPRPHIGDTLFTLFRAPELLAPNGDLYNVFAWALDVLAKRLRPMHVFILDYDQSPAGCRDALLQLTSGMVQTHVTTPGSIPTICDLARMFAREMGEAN
Procedure: The thymidylate kinase and synthase assays were performed according to known procedures (see, Cheng, Y.-C. & Prusoff, W. H. (1974) Anal. Biochem. 60:545-550; Roberts, D. (1966) Biochemistry 5:3546-3548; Dolnick, B. J. & Cheng, Y. C. (1977) J. Biol. Chem. 252:7697-7703). dThd phosphorylase activity was determined by monitoring conversion of [^14 C]dThd to [14 C] thymine using high performance liquid chromatography (HPLC). Briefly, after a 30 min incubation of enzyme extract with radiolabeled dThd at 37° C., the reaction was stopped by addition of 25% trichloroacetic acid. After neutralization and centrifugation, the supernatants were loaded on to an Alltech Lichrosorb RP-18 column, and the column was eluted at a rate of 1 ml/min with 5 mM KH2 PO4 (pH 3.5)--10% methanol. Fractions of 1 ml were collected and radioactivity associated with dThd and thymine (as previously determined by retention times of authentic markers measured by their absorbance at 265 nm) was measured by scintillation counting. For evaluation of whether 5'-Et-dThd could serve substrate for dThd phosphorylase, reactions were carried out as described as above, except that 5'-Et-dThd was used instead of [^14 C]dThd; metabolites were then analyzed by HPLC as described above.

[2] = target: HSV-1 (KOS) dThd kinase in infected HeLa BU cells (Human alphaherpesvirus 1 strain KOS, UniProt P17402); assay: Intracellular dThd kinase activity ([14C]dThd phosphorylation); assay type: cell-based, HSV-1 (strain KOS)
HSV-1 (KOS) dThd kinase in infected HeLa BU cells, sequence (P17402 whole entry, looked up): as above
Procedure: (§2) Intracellular dThd kinase activity. HeLa S3 or HeLa BU cells (1.5×10^6 /ml) were mock infected or infected with HSV-1 or HSV-2at 3 PFU/cell and incubated at 37° C. for a 1 h adsorption period. The medium was then removed, and the cells were washed with growth medium and resuspended at a cell density of 5×10^5 cells/ml in RPMI 1640 medium supplemented with kanamycin (100 μg/ml) and 5% dialyzed fetal bovine serum. At 9 h post-HSV infection, [14C]dThd (0.16 μCi/ml; 1 μM dThd) and different amounts of 5'-Et-dThd were added to the medium depending on experimental conditions. At the end of the labeling period (1 h), the cells were pelleted by centrifugation, washed with phosphate-buffered-saline (PBS) and resuspended in a small volume of PBS. Aliquots were then pipetted directly onto DE81 discs which were immediately washed in 100% EtOH. The DE81 discs were washed two additional times in 100% EtOH, and then radioactivity associated with the discs was measured by scintillation counting in 5 ml of aqueous counting fluid. In this manner, total intracellular dThd kinase activity was determined from the sum of radioactive acid soluble dThd nucleotides plus the acid insoluble dTMP associated with DNA, both precipitated directly on the DE81 discs.

[3] = target: HSV-1 SC16 dThd kinase in infected HeLa BU cells (Human herpesvirus 1, UniProt P06479); assay: as above; assay type: cell-based, HSV-1 (strain SC16); conditions: intracellular [14C]dThd phosphorylation
HSV-1 SC16 dThd kinase in infected HeLa BU cells, sequence (P06479 whole entry, looked up): as the sequence (P06479 whole entry, looked up) above
Procedure: as §2

[4] = test system: HSV-1-infected HeLa S3 cells; assay: Intracellular dThd phosphorylation; assay type: cell-based; conditions: 25 μM, 9 h post infection, 1 h labeling
Procedure: as §2

[5] = test system: HSV-2-infected HeLa S3 cells; assay: Intracellular dThd phosphorylation; assay type: cell-based; conditions: 25 μM, 9 h post infection, 1 h labeling
Procedure: as §2

[6] = test system: mock infected HeLa S3 cells; assay: Intracellular dThd phosphorylation; assay type: cell-based; conditions: increasing amounts of 5'-Et-dThd
Procedure: as §2

[7] = test system: HSV-1 (strain KOS)-infected HeLa BU cells; assay: Virus yield assay; assay type: cell-based
Procedure: Cell and virus growth inhibition. Cell growth inhibition and the virus yield assay were performed in accordance with the protocol described by Cheng, Y.-C., Grill, S.P., Ruth, J. and Bergstrom, D. E. (Antimicrob. Agents Chemother. 18:957-961 (1980)) with the exceptions that all studies were done using 5% dialyzed fetal bovine serum; the multiplicity of infection was 3 PFU/cell and Vero cells were used instead of CV-1 cells for titration in the virus yield assays.

HSV-1 (KOS) dThd kinase, sequence (P17402 whole entry, looked up): as the sequence (P17402 whole entry, looked up) above

**Q.** With 5'-ethynylthymidine [5'-Et-dThd] as the substance, how does the “inhibition of dThd kinase activity” value (HSV-1 (KOS) dThd kinase; 10 μM 5'-Et-dThd, purified enzyme, 100 μM [14C]dThd) read?
**A.** The value was 50%.

**Q.** What about the Ki (HSV-1 (KOS) dThd kinase; HSV-1 KOS, affinity column-purified dThd kinase, ± standard deviation) of the same substance?
**A.** Its Ki is 0.09 µM.

**Q.** And the IC50 (HSV-1 (KOS) dThd kinase; HSV-1 KOS, enzyme extracts of infected HeLa BU cells, 100 μM dThd)?
**A.** The IC50 was 6 µM.

**Q.** What about the “type of inhibition (kinetic studies)” value (HSV-1 (KOS) dThd kinase; with respect to dThd) of the same substance?
**A.** The value was “competitive inhibitor”.

**Q.** And the IC50 (HSV-1 SC16 dThd kinase)?
**A.** Its IC50 is 5 µM.

**Q.** And the “IC50 of virus-associated dTMP kinase” value ([1]; 25 μM dTMP substrate)?
**A.** Its value is 0.3 µM.

**Q.** What about the “IC50 of virus-associated dTMP kinase” value ([1]; 100 μM dTMP substrate) of the same substance?
**A.** The value was 0.8 µM.

**Q.** What about the “dThd phosphorylating activity, % of untreated control” value (“dThd phosphorylating activity, %” below) ([2]; 25 μM, HSV-1-infected HeLa BU, 9 h post infection, 1 h labeling) of the same substance?
**A.** The value was 12.5%.

**Q.** What about the “inhibition of dThd kinase-mediated [14C]dThd phosphorylation” value ([2]; 100 μM, HSV-1-infected HeLa BU cells, 9 h post infection) of the same substance?
**A.** Its value is 97%.

**Q.** And the IC50 ([2]; HSV-1 KOS, intracellular [14C]dThd phosphorylation, HeLa BU cells)?
**A.** Its IC50 is 3 µM.

**Q.** What about the IC50 [3] of the same substance?
**A.** Its IC50 is 5 µM.

**Q.** What about the “dThd phosphorylating activity, %” value [4] of the same substance?
**A.** The value was 25%.

**Q.** What about the “dThd phosphorylating activity, %” value [5] of the same substance?
**A.** Its value is 88%.

**Q.** What about the “accumulation of intracellular phosphorylated [14C]-dThd metabolites” value [6] of the same substance?
**A.** The value was “increased slightly”.

**Q.** And the “effect on the antiviral effect of aphidicolin” value ([7]; 0.2 μM aphidicolin with varying concentrations of 5'-Et-dThd)?
**A.** Its value is “significantly enhanced”.

**Q.** And the “effect on virus yield” value ([7]; 5'-Et-dThd by itself)?
**A.** The value was “no effect”.

**Q.** And the “% PFU with a 5'-Et-dThd conc. of 2.5 μM” value ([7]; Table II, drug (μM as in row; None = 5'-Et-dThd alone) plus 2.5 μM 5'-Et-dThd)?
**A.** The value was 97%.

**Q.** And the “% PFU with a 5'-Et-dThd conc. of 25 μM” value ([7]; Table II, drug (μM as in row; None = 5'-Et-dThd alone) plus 25 μM 5'-Et-dThd)?
**A.** Its value is 96%.

**Q.** What about the “% PFU with a 5'-Et-dThd conc. of 100 μM” value ([7]; Table II, drug (μM as in row; None = 5'-Et-dThd alone) plus 100 μM 5'-Et-dThd) of the same substance?
**A.** Its value is 99%.

**Q.** And the “%PFU with a 5'-Et-dThd conc. of 5 μM” value ([7]; Table III, aphidicolin 0.2 μM (None = 5'-Et-dThd alone) plus 5 μM 5'-Et-dThd)?
**A.** The value was 100%.

**Q.** And the “%PFU with a 5'-Et-dThd conc. of 20 μM” value ([7]; Table III, aphidicolin 0.2 μM (None = 5'-Et-dThd alone) plus 20 μM 5'-Et-dThd)?
**A.** The value was 100%.

**Q.** What about the “% PFU with a 5'-Et-dThd conc. of 100 μM” value ([7]; Table III, aphidicolin 0.2 μM (None = 5'-Et-dThd alone) plus 100 μM 5'-Et-dThd) of the same substance?
**A.** Its value is 100%.
